Source: PubChem BioAssay (NCI)
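These data come from cells grown in 96-well plates and exposed to compound for 48 hours at five concentrations. GI50: concentration for 50% inhibition of growth. TGI marks complete inhibition of growth.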

Tests used:
Assay in all cases: DTP human tumour cell line panel, 48 h
PC-3 prostate = system: PC-3 prostate
BT-549 breast = system: BT-549 breast
LOX IMVI melanoma = system: LOX IMVI melanoma
HL-60(TB) leukemia = system: HL-60(TB) leukemia
MOLT-4 leukemia = system: MOLT-4 leukemia
SK-MEL-5 melanoma = system: SK-MEL-5 melanoma
COLO 205 colon = system: COLO 205 colon
SW-620 colon = system: SW-620 colon
SN12C renal = system: SN12C renal
NCI-H522 lung = system: NCI-H522 lung
HS 578T breast = system: HS 578T breast
NCI-H226 lung = system: NCI-H226 lung
RXF 393 renal = system: RXF 393 renal
OVCAR-5 ovarian = system: OVCAR-5 ovarian
T-47D breast = system: T-47D breast
HOP-62 NSCLC = system: HOP-62 NSCLC
HOP-92 NSCLC = system: HOP-92 NSCLC
RPMI-8226 leukemia = system: RPMI-8226 leukemia
CAKI-1 renal = system: CAKI-1 renal
ACHN renal = system: ACHN renal
SNB-75 CNS = system: SNB-75 CNS
MDA-MB-435 = system: MDA-MB-435
HCT-116 colon = system: HCT-116 colon
U251 CNS = system: U251 CNS
SK-OV-3 ovarian = system: SK-OV-3 ovarian
M14 melanoma = system: M14 melanoma
MDA-MB-231 breast = system: MDA-MB-231 breast
SF-295 CNS = system: SF-295 CNS
KM12 colon = system: KM12 colon
SK-MEL-2 melanoma = system: SK-MEL-2 melanoma
IGROV1 ovarian = system: IGROV1 ovarian
TK-10 renal = system: TK-10 renal
OVCAR-8 ovarian = system: OVCAR-8 ovarian
UO-31 renal = system: UO-31 renal
NCI-H23 lung = system: NCI-H23 lung
CCRF-CEM leukemia = system: CCRF-CEM leukemia
EKVX NSCLC = system: EKVX NSCLC
HCT-15 colon = system: HCT-15 colon
MALME-3M melanoma = system: MALME-3M melanoma
UACC-62 melanoma = system: UACC-62 melanoma
786-0 renal = system: 786-0 renal
OVCAR-3 ovarian = system: OVCAR-3 ovarian
SR leukemia = system: SR leukemia
HT29 colon = system: HT29 colon
MCF7 breast = system: MCF7 breast
A549 NSCLC = system: A549 NSCLC
SNB-19 CNS = system: SNB-19 CNS
SK-MEL-28 melanoma = system: SK-MEL-28 melanoma
DU-145 prostate = system: DU-145 prostate
OVCAR-4 ovarian = system: OVCAR-4 ovarian
A498 renal = system: A498 renal
SF-539 CNS = system: SF-539 CNS
NCI/ADR-RES ovarian = system: NCI/ADR-RES ovarian
SF-268 CNS = system: SF-268 CNS
HCC-2998 colon = system: HCC-2998 colon
NCI-H460 lung = system: NCI-H460 lung
UACC-257 melanoma = system: UACC-257 melanoma
K-562 leukemia = system: K-562 leukemia

In the case of `Oc1c(C(c2ccc(F)cc2)N2CCCCC2)ccc2cncnc12` (stereo unspecified), the GI50 (PC-3 prostate) is reported as 0.426 µM, the TGI (PC-3 prostate) is reported as over 100 µM and the GI50 (BT-549 breast) is reported as 0.576 µM. It also gave a TGI (BT-549 breast) of over 100 µM, a GI50 (LOX IMVI melanoma) of 0.432 µM and a TGI (LOX IMVI melanoma) of over 100 µM. The GI50 (HL-60(TB) leukemia) was 1.14 µM, the TGI (HL-60(TB) leukemia) was 6.22 µM and the GI50 (MOLT-4 leukemia) was 1.38 µM. The TGI (MOLT-4 leukemia) was over 100 µM, the GI50 (SK-MEL-5 melanoma) was 0.529 µM and the TGI (SK-MEL-5 melanoma) was 3.63 µM. The GI50 (COLO 205 colon) was 3.3 µM, the TGI (COLO 205 colon) was over 100 µM and the GI50 (SW-620 colon) was 0.478 µM. For the same molecule, the TGI (SW-620 colon) was over 100 µM, the GI50 (SN12C renal) was 0.396 µM and the TGI (SN12C renal) was over 100 µM. For the same molecule, the GI50 (NCI-H522 lung) was 0.353 µM, the TGI (NCI-H522 lung) was 10.2 µM and the GI50 (HS 578T breast) was 0.432 µM. For the same molecule, the TGI (HS 578T breast) was over 100 µM, the GI50 (NCI-H226 lung) was 1.19 µM and the TGI (NCI-H226 lung) was 19.4 µM. For the same molecule, the GI50 (RXF 393 renal) was 0.416 µM, the TGI (RXF 393 renal) was 12.2 µM and the GI50 (OVCAR-5 ovarian) was 1.28 µM. For the same molecule, the TGI (OVCAR-5 ovarian) was over 100 µM, the GI50 (T-47D breast) was 0.612 µM and the TGI (T-47D breast) was 97 µM. It also gave a GI50 (HOP-62 NSCLC) of 0.513 µM, a TGI (HOP-62 NSCLC) of over 100 µM and a GI50 (HOP-92 NSCLC) of 0.313 µM. The TGI (HOP-92 NSCLC) was 2.96 µM, the GI50 (RPMI-8226 leukemia) was 0.555 µM and the TGI (RPMI-8226 leukemia) was over 100 µM. For the same molecule, the GI50 (CAKI-1 renal) was 0.899 µM, the TGI (CAKI-1 renal) was 13.4 µM and the GI50 (ACHN renal) was 1.24 µM. It also gave a TGI (ACHN renal) of over 100 µM, a GI50 (SNB-75 CNS) of 0.246 µM and a TGI (SNB-75 CNS) of 3.95 µM. It also gave a GI50 (MDA-MB-435) of 0.412 µM, a TGI (MDA-MB-435) of over 100 µM and a GI50 (HCT-116 colon) of 0.364 µM. The TGI (HCT-116 colon) was over 100 µM, the GI50 (U251 CNS) was 0.325 µM and the TGI (U251 CNS) was over 100 µM. It also gave a GI50 (SK-OV-3 ovarian) of 0.571 µM, a TGI (SK-OV-3 ovarian) of 38.8 µM and a GI50 (M14 melanoma) of 0.746 µM. The TGI (M14 melanoma) was over 75.2 µM, the GI50 (MDA-MB-231 breast) was 1.5 µM and the TGI (MDA-MB-231 breast) was over 100 µM. The GI50 (SF-295 CNS) was 0.413 µM, the TGI (SF-295 CNS) was over 100 µM and the GI50 (KM12 colon) was 1.07 µM. It also gave a TGI (KM12 colon) of over 100 µM, a GI50 (SK-MEL-2 melanoma) of 0.527 µM and a TGI (SK-MEL-2 melanoma) of 5.86 µM. For the same molecule, the GI50 (IGROV1 ovarian) was 0.532 µM, the TGI (IGROV1 ovarian) was 21.7 µM and the GI50 (TK-10 renal) was 1.35 µM. It also gave a TGI (TK-10 renal) of over 100 µM, a GI50 (OVCAR-8 ovarian) of 0.453 µM and a TGI (OVCAR-8 ovarian) of over 100 µM. For the same molecule, the GI50 (UO-31 renal) was 0.834 µM, the TGI (UO-31 renal) was 6.62 µM and the GI50 (NCI-H23 lung) was 0.414 µM. The TGI (NCI-H23 lung) was over 100 µM, the GI50 (CCRF-CEM leukemia) was 0.477 µM and the TGI (CCRF-CEM leukemia) was over 100 µM. For the same molecule, the GI50 (EKVX NSCLC) was 0.672 µM, the TGI (EKVX NSCLC) was 45.9 µM and the GI50 (HCT-15 colon) was 2.11 µM. The TGI (HCT-15 colon) was over 100 µM, the GI50 (MALME-3M melanoma) was 1.17 µM and the TGI (MALME-3M melanoma) was 47.9 µM. It also gave a GI50 (UACC-62 melanoma) of 0.476 µM, a TGI (UACC-62 melanoma) of 5.11 µM and a GI50 (786-0 renal) of 1.69 µM. For the same molecule, the TGI (786-0 renal) was over 100 µM, the GI50 (OVCAR-3 ovarian) was 0.783 µM and the TGI (OVCAR-3 ovarian) was over 100 µM. For the same molecule, the GI50 (SR leukemia) was 0.675 µM, the TGI (SR leukemia) was over 100 µM and the GI50 (HT29 colon) was 0.747 µM. The TGI (HT29 colon) was over 100 µM, the GI50 (MCF7 breast) was 0.344 µM and the TGI (MCF7 breast) was over 39.4 µM. The GI50 (A549 NSCLC) was 0.377 µM, the TGI (A549 NSCLC) was over 51.3 µM and the GI50 (SNB-19 CNS) was 0.396 µM. The TGI (SNB-19 CNS) was over 100 µM, the GI50 (SK-MEL-28 melanoma) was 0.71 µM and the TGI (SK-MEL-28 melanoma) was over 100 µM. For the same molecule, the GI50 (DU-145 prostate) was 0.784 µM, the TGI (DU-145 prostate) was over 100 µM and the GI50 (OVCAR-4 ovarian) was 1.77 µM. For the same molecule, the TGI (OVCAR-4 ovarian) was over 100 µM, the GI50 (A498 renal) was 1.46 µM and the TGI (A498 renal) was 9.43 µM. The GI50 (SF-539 CNS) was 0.388 µM, the TGI (SF-539 CNS) was over 81.2 µM and the GI50 (NCI/ADR-RES ovarian) was 2.58 µM. It also gave a TGI (NCI/ADR-RES ovarian) of over 100 µM, a GI50 (SF-268 CNS) of 0.484 µM and a TGI (SF-268 CNS) of over 100 µM. For the same molecule, the GI50 (HCC-2998 colon) was 2.09 µM, the TGI (HCC-2998 colon) was over 100 µM and the GI50 (NCI-H460 lung) was 0.351 µM. For the same molecule, the TGI (NCI-H460 lung) was 14.1 µM, the GI50 (UACC-257 melanoma) was 0.711 µM and the TGI (UACC-257 melanoma) was 12.2 µM. For the same molecule, the GI50 (K-562 leukemia) was 0.503 µM and the TGI (K-562 leukemia) was over 100 µM.
